Reference: US11623944B2, “Paenibacillus strain, antifungal compounds, and methods for their use” (Bayer CropScience LP, priority 2015, dated 2023)

Test system: Paenibacillus sp. strain NRRL B-50972
Assay: Antibiotic sensitivity on sLB agar
Assay type: cell-based
Conditions: growth after 24, 48, 72 hours at 30° C.

With `CCn1cc(C(=O)O)c(=O)c2ccc(C)nc21` [Nalidixic acid] the Sensitive/Resistant (antibiotic 25 μg/mL) was “Sensitive”.

Polymyxin B was tested, and the Sensitive/Resistant (antibiotic 10 μg/mL) was “Resistant”.
